Reference: patent US20250313574A1, “SIALIC ACID DERIVATIVES AND METHODS OF USING SAME” (EISAI R&D MANAGEMENT CO., LTD., priority 2022, published 2025)
Each block holds one compound with its values, some of them ahead of it.

Experiments:
[1] = target: Recombinant Human Siglec-3/CD33 protein (His-CD33) (Homo sapiens (Human), UniProt P20138); assay: Differential scanning fluorimetry (DSF) thermal shift assay; type: binding
[2] = target: Recombinant human CD33 protein (Homo sapiens (Human), UniProt P20138); assay: CD33 competitive binding assay for HTS drug screen (fluorescent multivalent sialic acid probe)
Recombinant human CD33 protein, sequence (P20138 18-259): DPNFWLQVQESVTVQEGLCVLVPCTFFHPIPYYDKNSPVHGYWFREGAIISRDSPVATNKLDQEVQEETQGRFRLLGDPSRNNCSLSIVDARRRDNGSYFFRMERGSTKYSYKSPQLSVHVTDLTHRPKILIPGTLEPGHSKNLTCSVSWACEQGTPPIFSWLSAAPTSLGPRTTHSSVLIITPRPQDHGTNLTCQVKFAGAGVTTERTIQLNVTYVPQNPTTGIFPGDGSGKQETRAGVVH
In short: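 Recombinant human CD33, coated overnight at 4° C from 10 μg/ml in pH 5.5 acetate, was preincubated briefly with compound. It was then exposed to a multivalent neutravidin/FITC/sialic acid analog A-375 probe (final 5 μM neutravidin, 15 μM A-375, 5 μM FITC) for 30 min at room temperature. After washing, bound FITC fluorescence was read.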

[3] = thermal melt shift of 0.5 μM CD33 protein with 50 μM compound
[4] = difference in thermal melt of CD33 protein (0.5 μM) with 50 μM compound

Recombinant Human Siglec-3/CD33 protein (His-CD33), sequence (P20138 18-259): as above

Compound: CC(=O)N[C@H]1[C@H]([C@H](O)[C@H](O)CNC(=O)c2cn(C)nc2C)O[C@@](CCN2CCOC[C@@]23CCN(C(=O)OC(C)(C)C)C3)(C(=O)O)C[C@@H]1O [A-136]
- DSF (dTmD) [1, 3]: 6.5
- EC50 [2]: 440 nM

Compound: CC(=O)N[C@H]1[C@H]([C@H](O)[C@H](O)CNC(=O)c2cc(C)c(O)c(C)c2)O[C@@](CCN2CCOC[C@@]23CCN(c2ccccn2)C3)(C(=O)O)C[C@@H]1O [A-037]
- DSF (dTmD) [1, 3]: 9.6
- EC50 [2]: 39 nM

Compound: CC(=O)N[C@H]1[C@H]([C@H](O)[C@H](O)CNC(=O)c2cnc3[nH]ncc3c2)O[C@@](CCN2CCOC[C@@]23CCN(C(=O)OC(C)(C)C)C3)(C(=O)O)C[C@@H]1O [A-126]
- DSF (dTmD) [1, 3]: 11.2
- EC50 [2]: 50 nM

Compound: CC(=O)N[C@H]1[C@H]([C@H](O)[C@H](O)CNC(=O)c2ccc(=O)[nH]c2)O[C@@](CCN2CCOC[C@@]23CCN(C(=O)OC(C)(C)C)C3)(C(=O)O)C[C@@H]1O [A-171]
- DSF (dTmD) [1, 3]: 3.6
- EC50 [2]: 10300 nM

Compound: CC(=O)N[C@H]1[C@H]([C@H](O)[C@H](O)CNC(=O)c2cc(C)c(O)c(C)c2)O[C@@](CCN2CCOC[C@@]23CCN(C(=O)NCc2ccccc2)C3)(C(=O)O)C[C@@H]1O [A-079]
- DSF (dTmD) [1, 3]: 9.1
- EC50 [2]: 152 nM

Compound: CC(=O)N[C@H]1[C@H]([C@H](O)[C@H](O)CNC(=O)c2cc(C)c(O)c(C)c2)O[C@@](CCN2CCOC[C@@]23CCN(C(=O)C2CC4(C2)CC(F)(F)C4)C3)(C(=O)O)C[C@@H]1O [A-069]
- DSF (dTmD) [1, 3]: 8.3
- EC50 [2]: 123 nM

Compound: CC(=O)N[C@H]1[C@H]([C@H](O)[C@H](O)CNC(=O)c2cc(C)c(O)c(C)c2)O[C@@](CCN2CCOC[C@@]23CCN(C(=O)N2CCCC2)C3)(C(=O)O)C[C@@H]1O [A-062]
- DSF (dTmD) [1, 3]: 7.2
- EC50 [2]: 833 nM

Compound: CC(=O)N[C@H]1[C@H]([C@H](O)[C@H](O)CNC(=O)c2cc(C)c(O)c(C)c2)O[C@@](CCN2CCOC[C@@]23CCN(C(=O)NC24CC5CC(CC(C5)C2)C4)C3)(C(=O)O)C[C@@H]1O [A-049]
- DSF (dTmD) [1, 3]: 13.5
- EC50 [2]: 41 nM

Compound: CC(=O)N[C@H]1[C@H]([C@H](O)[C@H](O)CNC(=O)c2cc(C)c(O)c(C)c2)O[C@@](CCN2CCOC[C@@]23CCN(C(=O)NC(C)C(F)(F)F)C3)(C(=O)O)C[C@@H]1O (some centres unmarked) [A-044]
- DSF (dTmD) [1, 3]: 11.5
- EC50 [2]: 19 nM

Compound: CC(=O)N[C@H]1[C@H]([C@H](O)[C@H](O)CNC(=O)c2cc(C)c(O)c(C)c2)O[C@@](CCN2CCOC[C@@]23CCN(C(=O)N(C)c2ccccc2)C3)(C(=O)O)C[C@@H]1O [A-059]
- DSF (dTmD) [1, 3]: 9.3
- EC50 [2]: 60 nM

Compound: COc1cc(C(=O)NC[C@@H](O)[C@@H](O)[C@@H]2O[C@@](CCN3CCOC[C@@]34CCN(C(=O)OC(C)(C)C)C4)(C(=O)O)C[C@H](O)[C@H]2NC(C)=O)ccc1C#N [A-165]
- DSF (dTmD) [1, 3]: 5.7
- EC50 [2]: 1140 nM

Compound: CC(=O)N[C@H]1[C@H]([C@H](O)[C@H](O)CNC(=O)c2cc(C)cc(C)c2)O[C@@](CCN2CCOC[C@@]23CCN(C(=O)OC(C)(C)C)C3)(C(=O)O)C[C@@H]1O [A-190]
- DSF (dTmD) [1, 3]: 10.1
- EC50 [2]: 119 nM

Compound: CC(=O)N[C@H]1[C@H]([C@H](O)[C@H](O)CNC(=O)c2ccc3c(=O)n(C)cnc3c2)O[C@@](CCN2CCOC[C@@]23CCN(C(=O)OC(C)(C)C)C3)(C(=O)O)C[C@@H]1O [A-138]
- DSF (dTmD) [1, 3]: 6.6
- EC50 [2]: 600 nM

Compound: CC(=O)N[C@H]1[C@H]([C@H](O)[C@H](O)CNC(=O)c2ccc(=O)n(C)c2)O[C@@](CCN2CCOC[C@@]23CCN(C(=O)OC(C)(C)C)C3)(C(=O)O)C[C@@H]1O [A-170]
- DSF (dTmD) [1, 3]: 6.0
- EC50 [2]: 3870 nM

Compound: CC(=O)N[C@H]1[C@H]([C@H](O)[C@H](O)CNC(=O)c2cc3ncccn3n2)O[C@@](CCN2CCOC[C@@]23CCN(C(=O)OC(C)(C)C)C3)(C(=O)O)C[C@@H]1O [A-122]
- DSF (dTmD) [1, 3]: 12.4
- EC50 [2]: 32 nM

Compound: COc1c(C)cc(C(=O)NC[C@@H](O)[C@@H](O)[C@@H]2O[C@@](CCN3CCOC[C@@]34CCN(C(=O)OC(C)(C)C)C4)(C(=O)O)C[C@H](O)[C@H]2NC(C)=O)cc1C [A-118]
- DSF (dTmD) [1, 3]: 12.1
- EC50 [2]: 60 nM

The next lines start with the values.

- DSF (dTmD) [1, 4]: 4.8 °C
- EC50 [2]: 960 nM
Compound: CC(=O)N[C@H]1[C@H]([C@H](O)[C@H](O)CNC(=O)c2cc(C)c(O)c(C)c2)O[C@@](CC2OC(C)(C)O[C@@H]2c2ccc(C)c(N3CCCC3=O)c2)(C(=O)O)C[C@@H]1O (some centres unmarked) [A-320]

- DSF (dTmD) [1, 4]: 14.6 °C
- EC50 [2]: 12 nM
Compound: CC(=O)N[C@H]1[C@H]([C@H](O)[C@H](O)CNC(=O)c2cc(C)c(O)c(C)c2)O[C@@](C[C@H]2COC[C@@]3(CCN(C(=O)OC(C)(C)C)C3)N2)(C(=O)O)C[C@@H]1O [A-227]

- DSF (dTmD) [1, 4]: 0.7 °C
- EC50 [2]: 94000 nM
Compound: CC(=O)N[C@H]1[C@H]2O[C@](C(=O)O)(C/C=C/c3cccc(c3)[C@@H](NC(=O)C3CCCOC3)CCCc3cc(cc(Cl)c3O)C(=O)NC[C@@H](O)[C@H]2O)C[C@@H]1O (some centres unmarked) [A-352]

- DSF (dTmD) [1, 4]: 0.8 °C
- EC50 [2]: 5030 nM
Compound: CC(=O)N[C@H]1[C@H]([C@H](O)[C@H](O)CNC(=O)c2cc(C)c(O)c(C)c2)O[C@@](C/C=C/c2cccc(CNC(=O)c3ccc4[nH]nnc4c3)c2)(C(=O)O)C[C@@H]1O [A-237]

- DSF (dTmD) [1, 4]: 2.8 °C
- EC50 [2]: 7700 nM
Compound: Cc1cc(C(=O)NC[C@@H](O)[C@@H](O)[C@@H]2O[C@@](OC3CCCCC3NC(=O)Cn3cc(CNC(=O)N4CCOCC4)nn3)(C(=O)O)C[C@H](O)[C@H]2NC(=O)Cn2cc(C3CCCCC3)nn2)cc(C)c1O (some centres unmarked) [A-334]

- DSF (dTmD) [1, 4]: 5.4 °C
- EC50 [2]: 2300 nM
Compound: Cc1cc(C(=O)NC[C@@H](O)[C@@H](O)[C@@H]2O[C@@](OC3CCCCC3NC(=O)Cn3cc(CNC(=O)c4ccccn4)nn3)(C(=O)O)C[C@H](O)[C@H]2NC(=O)Cn2cc(C3CCCCC3)nn2)cc(C)c1O (some centres unmarked) [A-332]

- DSF (dTmD) [1, 4]: 3.8 °C
- EC50 [2]: 4860 nM
Compound: CC(=O)N[C@H]1[C@H]([C@H](O)[C@H](O)CNC(=O)c2cc(C)c(O)c(C)c2)O[C@@](CC2OC(C)(C)O[C@H]2c2cccc(N3CCCCC3=O)c2)(C(=O)O)C[C@@H]1O (some centres unmarked) [A-316]

- DSF (dTmD) [1, 4]: 8.8 °C
- EC50 [2]: 1740 nM
Compound: Cc1cc(C(=O)NC[C@@H](O)[C@@H](O)[C@@H]2O[C@@](C/C=C/c3cccc(CNC(=O)c4ccc5[nH]ccc5c4)c3)(C(=O)O)C[C@H](O)[C@H]2NC(=O)Cn2cc(C3CCCCC3)nn2)cc(C)c1O [A-278]

- DSF (dTmD) [1, 4]: 5.1 °C
- EC50 [2]: 3990 nM
Compound: Cc1cc(C(=O)NC[C@@H](O)[C@@H](O)[C@@H]2O[C@@](C/C=C/c3cccc(CNC(=O)c4ccon4)c3)(C(=O)O)C[C@H](O)[C@H]2NC(=O)Cn2cc(C3CCCCC3)nn2)cc(C)c1O [A-271]

- DSF (dTmD) [1, 4]: 5.7 °C
- EC50 [2]: 4700 nM
Compound: Cc1cc(C(=O)NC[C@@H](O)[C@@H](O)[C@@H]2O[C@@](C/C=C/c3cccc(CNC(=O)CC4CCOCC4)c3)(C(=O)O)C[C@H](O)[C@H]2NC(=O)Cn2cc(C3CCCCC3)nn2)cc(C)c1O [A-274]

- DSF (dTmD) [1, 4]: 5.1 °C
- EC50 [2]: 2170 nM
Compound: CC(=O)N[C@H]1[C@H]([C@H](O)[C@H](O)CNC(=O)c2cc(C)c(O)c(C)c2)O[C@@](C/C=C/c2cccc(CNC(=O)C3CCC[C@H](Nc4ncccn4)C3)c2)(C(=O)O)C[C@@H]1O (some centres unmarked) [A-256]

- DSF (dTmD) [1, 4]: 2.0 °C
- EC50 [2]: 20400 nM
Compound: CC(=O)N[C@H]1[C@H]([C@H](O)[C@H](O)CNC(=O)c2cc(C)c(O)c(C)c2)O[C@@](C/C=C/c2cc(CNC(=O)C3CCCOC3)ccc2C)(C(=O)O)C[C@@H]1O (some centres unmarked) [A-290]

- DSF (dTmD) [1, 4]: 3.6 °C
- EC50 [2]: 19000 nM
Compound: Cc1cc2cc(C)c1OCCNC(=O)CCCCCCCC[C@]1(C(=O)O)C[C@H](O)[C@@H](NC(=O)Cn3cc(C4CCCCC4)nn3)[C@@H](O1)[C@H](O)[C@H](O)CNC2=O [A-347]

- DSF (dTmD) [1, 4]: 8.4 °C
- EC50 [2]: 3260 nM
Compound: CC(=O)N[C@H]1[C@H]([C@H](O)[C@H](O)CNC(=O)c2cc(C)c(O)c(C)c2)O[C@@](C/C=C/c2cccc(CNC(=O)c3ccc4[nH]c(-c5c[nH]c6ccccc56)cc4c3)c2)(C(=O)O)C[C@@H]1O [A-250]

- DSF (dTmD) [1, 4]: 4.2 °C
- EC50 [2]: 4610 nM
Compound: CC(=O)N[C@H]1[C@H]([C@H](O)[C@H](O)CNC(=O)c2cc(C)c(O)c(C)c2)O[C@@](C/C=C/c2cnc(CNC(=O)C3CCCOC3)s2)(C(=O)O)C[C@@H]1O (some centres unmarked) [A-294]

- DSF (dTmD) [1, 4]: 3.2 °C
- EC50 [2]: 21400 nM
Compound: Cc1cc2cc(C)c1OCCCNC(=O)CCCCCC[C@]1(C(=O)O)C[C@H](O)[C@@H](NC(=O)Cn3cc(C4CCCCC4)nn3)[C@@H](O1)[C@H](O)[C@H](O)CNC2=O [A-345]

- DSF (dTmD) [1, 4]: 0.0 °C
- EC50 [2]: 103000 nM
Compound: CC(=O)N[C@H]1[C@H]([C@H](O)[C@H](O)CNC(=O)c2cc(C)c(O)c(C)c2)O[C@@](CC2COC(C)(C)O2)(C(=O)O)C[C@@H]1O (some centres unmarked) [A-307]

- DSF (dTmD) [1, 4]: 7.0 °C
- EC50 [2]: 8630 nM
Compound: Cc1cc(C(=O)NC[C@@H](O)[C@@H](O)[C@@H]2O[C@@](C/C=C/c3cccc(CNC(=O)c4ccn(-c5ccccn5)n4)c3)(C(=O)O)C[C@H](O)[C@H]2NC(=O)Cn2cc(C3CCCCC3)nn2)cc(C)c1O [A-275]
